The values that follow are results of earlier work, collected in patent US20160143911A1, “STABLE AND WATER SOLUBLE PHARMACEUTICAL COMPOSITIONS COMPRISING PEMETREXED” (SYNTHON B.V., priority 2013, published 2016).

For this series the following is noted: free diacid form.

Turning to `Nc1nc2[nH]cc(CCc3ccc(C(=O)N[C@@H](CCC(=O)O)C(=O)O)cc3)c2c(=O)[nH]1` [pemetrexed diacid, N-[4-[2-(2-amino-4,7-dihydro-4-oxo-1H-pyrrolo [2,3-d]pyrimidin-5-yl)ethyl]benzoyl]-L-glutamic acid], the Solubility in water result is listed as “only sparingly soluble in water”.
